From ChEMBL document CHEMBL5614376, “Discovery of MT-1207: A Novel, Potent Multitarget Inhibitor as a Promising Clinical Candidate for the Treatment of Hypertension” (J Med Chem, 2024)

What was measured:
Assay type in all cases: functional
[1] = system: Rattus norvegicus; experiment: Effect on postural hypotension in Sprague-Dawley rat assessed as change in systolic blood pressure at 22 ug/kg, po treated for >30 mins followed by induction of postural hypotension measured 3 secs after postural change (reference value: 124 +/- 10 mmHg); details: dose 22 µg/kg, time > 30.05 min, 0.5008 h
[2] = system: Rattus norvegicus; experiment: Effect on postural hypotension in Sprague-Dawley rat assessed as change in systolic blood pressure at 22 ug/kg, po treated for >30 mins followed by induction of postural hypotension measured immediately after postural change (reference value: 131 +/- 9 mmHg); details: dose 22 µg/kg, 0.5 h
[3] = system: Rattus norvegicus; experiment: Effect on postural hypotension in Sprague-Dawley rat assessed as change in systolic blood pressure at 22 ug/kg, po treated for >30 mins followed by induction of postural hypotension measured 40 secs after postural change (reference value: 128 +/- 11 mmHg); details: dose 22 µg/kg, time > 30.67 min, 0.5112 h
[4] = system: Rattus norvegicus; experiment: Effect on postural hypotension in Sprague-Dawley rat assessed as change in systolic blood pressure at 22 ug/kg, po treated for >30 mins followed by induction of postural hypotension measured 5 secs after postural change (reference value: 126 +/- 12 mmHg); details: dose 22 µg/kg, time > 30.08 min, 0.5013 h
[5] = system: Rattus norvegicus; experiment: Effect on postural hypotension in Sprague-Dawley rat assessed as change in systolic blood pressure at 22 ug/kg, po treated for >30 mins followed by induction of postural hypotension measured 20 secs after postural change (reference value: 129 +/- 11 mmHg); details: dose 22 µg/kg, time > 30.33 min, 0.5055 h
[6] = system: Rattus norvegicus; experiment: Effect on postural hypotension in Sprague-Dawley rat assessed as change in systolic blood pressure at 22 ug/kg, po treated for >30 mins followed by induction of postural hypotension measured 10 secs after postural change (reference value: 127 +/- 12 mmHg); details: dose 22 µg/kg, time > 30.17 min, 0.5028 h
[7] = system: Rattus norvegicus; experiment: Effect on postural hypotension in Sprague-Dawley rat assessed as change in systolic blood pressure at 22 ug/kg, po treated for >30 mins followed by induction of postural hypotension measured 60 secs after postural change (reference value: 127 +/- 10 mmHg); details: dose 22 µg/kg, time > 31 min

COc1cc2nc(N3CCN(C(=O)c4ccco4)CC3)nc(N)c2cc1OC [PRAZOSIN]
Activity [1]: 81 mmHg
Activity [2]: 95 mmHg
Activity [3]: 74 mmHg
Activity [4]: 77 mmHg
Activity [5]: 75 mmHg
Activity [6]: 75 mmHg
Activity [7]: 74 mmHg
